Measured values as given in patent US12203124B2, “Methods for improved rapid antimicrobial susceptibility testing” (priority 2016, dated 2025).
Values after ≈ are worked out from the molar mass of the structure shown. Read-outs that look alike come from different tables or passages of the source.

Experiments:
E. coli strains = assay: CLSI overnight reference method, broth microdilution MIC; assay type: cell-based; details: for MIC (CLSI Ref): unit assumed
P. aeruginosa = assay: Rapid AST by surface binding of europium probe, time resolved fluorescence; assay type: cell-based; details: Pseudomonas aeruginosa
Description: The x-axis of each graph denotes the concentrations of antimicrobial Amikacin (AMK) in micrograms/milliliter, and the y-axis denotes fluorescence from binding to bacteria surface. Growth check data measured by optical density (Absorbance at 600 nm) of the bacterial culture is denoted for each strain.
AST was performed by surface binding of probe followed by time resolved fluorescence. The P. aeruginosa strains were incubated at 35° C. in shaking conditions for 4 hours for attaining growth, and growth check was performed by measuring absorbance of the culture at 600 nm after 4 hours of growth.

[1] = E. coli strain Clinical Sample 1
[2] = E. coli strain Clinical Sample 2
[3] = E. coli strain Clinical Sample 4
[4] = E. coli strain Clinical Sample 5
[5] = E. coli strain Clinical Sample 6
[6] = E. coli strain Clinical Sample 7
[7] = E. coli strain Clinical Sample 8
[8] = E. coli strain Clinical Sample 9
[9] = E. coli strain Clinical Sample 10
[10] = E. coli strain Clinical Sample 11
[11] = E. coli strain Clinical Sample 12
[12] = E. coli strain Clinical Sample 13

Compound	MIC (CLSI Ref) (E. coli strains; E. coli strain BEI 4.097) [µg/mL]	MIC (CLSI Ref) (E. coli strains; E. coli strain CDC Carba36) [µg/mL]	MIC (CLSI Ref) (E. coli strains; [1]) [µg/mL]	MIC (CLSI Ref) (E. coli strains; [2]) [µg/mL]	MIC (CLSI Ref) (E. coli strains; [3]) [µg/mL]	MIC (CLSI Ref) (E. coli strains; [4]) [µg/mL]	MIC (CLSI Ref) (E. coli strains; [5]) [µg/mL]	MIC (CLSI Ref) (E. coli strains; [6]) [µg/mL]	MIC (CLSI Ref) (E. coli strains; [7]) [µg/mL]	MIC (CLSI Ref) (E. coli strains; [8]) [µg/mL]	MIC (CLSI Ref) (E. coli strains; [9]) [µg/mL]	MIC (CLSI Ref) (E. coli strains; [10]) [µg/mL]	MIC (CLSI Ref) (E. coli strains; [11]) [µg/mL]	MIC (CLSI Ref) (E. coli strains; [12]) [µg/mL]	Interpretation letter (E. coli strains; [2])	MIC (P. aeruginosa; P. aeruginosa Strain 1, growth check value 2.18, 4 hours at 35° C., read-out: MIC) [µg/mL]	MIC (P. aeruginosa; P. aeruginosa Strain 2, no reliable MIC at growth checkpoint value 1.13, read-out: expected MIC) [µg/mL]
Piperacillin/tazobactam [TZP]	4	128	4	8	4	4	2	4	32	> 128	2	2	2	32			
C[C@@H](O)[C@H]1C(=O)N2C(C(=O)O)=C(S[C@@H]3CN[C@H](C(=O)Nc4cccc(C(=O)O)c4)C3)[C@H](C)[C@H]12 [ERT, Ertapenem]	0.008 (≈ 0.0168 µM)	0.12 (≈ 0.252 µM)	0.008 (≈ 0.0168 µM)	0.015 (≈ 0.0315 µM)	0.008 (≈ 0.0168 µM)	0.008 (≈ 0.0168 µM)	0.008 (≈ 0.0168 µM)	0.008 (≈ 0.0168 µM)	0.25 (≈ 0.526 µM)	0.12 (≈ 0.252 µM)	0.008 (≈ 0.0168 µM)	0.008 (≈ 0.0168 µM)	0.008 (≈ 0.0168 µM)	0.016 (≈ 0.0336 µM)			
C[C@H]1COc2c(N3CCN(C)CC3)c(F)cc3c(=O)c(C(=O)O)cn1c23 [LVX, Levofloxacin]	< 0.06	> 8	< 0.06	< 0.06	> 8	> 8	< 0.06	< 0.06	< 0.06	> 8	8 (≈ 22.1 µM)	< 0.06	0.5 (≈ 1.38 µM)	< 0.06			
Penicillin	16	> 16	> 16	> 16	> 16	> 16	16	> 16	> 16	> 16	> 16	> 16	> 16	16			
Ampicillin/sulbactam [SAM]	8	> 32	4	16	16	8	2	16	64	32	16	4	2	> 32	I		
CN(C)[C@@H]1C(=O)C(C(N)=O)=C(O)[C@@]2(O)C(=O)C3=C(O)c4c(O)cccc4[C@@](C)(O)[C@H]3C[C@@H]12 [TET, Tetracycline]	32 (≈ 72 µM)	8 (≈ 18 µM)	4 (≈ 9 µM)	> 32	4 (≈ 9 µM)	> 32	2 (≈ 4.5 µM)	4 (≈ 9 µM)	8 (≈ 18 µM)	4 (≈ 9 µM)	4 (≈ 9 µM)	4 (≈ 9 µM)	4 (≈ 9 µM)	4 (≈ 9 µM)	R		
NC[C@H]1O[C@H](O[C@H]2[C@H](O)[C@@H](O[C@H]3O[C@H](CO)[C@@H](O)[C@H](N)[C@H]3O)[C@H](N)C[C@@H]2N)[C@H](N)C[C@@H]1O [TOB, Tobramycin]	1 (≈ 2.14 µM)	1 (≈ 2.14 µM)	2 (≈ 4.28 µM)	1 (≈ 2.14 µM)	1 (≈ 2.14 µM)	1 (≈ 2.14 µM)	1 (≈ 2.14 µM)	1 (≈ 2.14 µM)	2 (≈ 4.28 µM)	4 (≈ 8.56 µM)	16 (≈ 34.2 µM)	1 (≈ 2.14 µM)	1 (≈ 2.14 µM)	1 (≈ 2.14 µM)			
Colistin [CST]	0.12	0.25	0.12	0.12	0.25	0.25	0.12	0.12	0.12	0.5	0.25	0.5	0.25	0.25			
CO/N=C(\C(=O)N[C@@H]1C(=O)N2C(C(=O)O)=C(CSc3nc(=O)c(=O)[nH]n3C)CS[C@H]12)c1csc(N)n1 [CRO, Ceftriaxone]	< 0.12	1 (≈ 1.8 µM)	< 0.12	2 (≈ 3.61 µM)	< 0.12	< 0.12	< 0.12	< 0.12	64 (≈ 115 µM)	> 64	< 0.12	< 0.12	< 0.12	< 0.12	I		
C[C@@H](O)[C@H]1C(=O)N2C(C(=O)O)=C(S[C@@H]3CN[C@H](C(=O)N(C)C)C3)[C@H](C)[C@H]12 [MEM, Meropenem]	< 0.06	< 0.06	< 0.06	< 0.06	< 0.06	< 0.06	< 0.06	< 0.06	< 0.06	< 0.06	< 0.06	< 0.06	< 0.06	< 0.06			
CC1(C)S[C@@H]2[C@H](NC(=O)[C@H](N)c3ccccc3)C(=O)N2[C@H]1C(=O)O [AMP, Ampicillin]	4 (≈ 11.4 µM)	> 32	4 (≈ 11.4 µM)	> 32	> 32	> 32	4 (≈ 11.4 µM)	> 32	> 32	> 32	> 32	4 (≈ 11.4 µM)	4 (≈ 11.4 µM)	> 32			
Trimethoprim-Sulfamethoxazole [SXT]	< 0.5	< 0.5	< 0.5	4	> 32	> 32	2	> 32	< 0.5	> 32	> 32	< 0.5	< 0.5	< 0.5	R		
Gentamycin	0.5	2	0.5	4	0.5	2	0.5	0.5	1	1	> 16	2	1	1			
CC(C)(O/N=C(\C(=O)N[C@@H]1C(=O)N2C(C(=O)[O-])=C(C[n+]3ccccc3)CS[C@H]12)c1csc(N)n1)C(=O)O [CAZ, Ceftazidime]	0.25 (≈ 0.457 µM)	4 (≈ 7.32 µM)	0.25 (≈ 0.457 µM)	2 (≈ 3.66 µM)	0.25 (≈ 0.457 µM)	0.25 (≈ 0.457 µM)	0.12 (≈ 0.22 µM)	0.25 (≈ 0.457 µM)	> 32	> 32	0.12 (≈ 0.22 µM)	0.25 (≈ 0.457 µM)	0.12 (≈ 0.22 µM)	0.12 (≈ 0.22 µM)			
C[C@H]1[C@H](NC(=O)/C(=N\OC(C)(C)C(=O)O)c2csc(N)n2)C(=O)N1S(=O)(=O)O [ATM, Aztreonam]	< 0.25	8 (≈ 18.4 µM)	< 0.25	0.5 (≈ 1.15 µM)	< 0.25	< 0.25	< 0.25	< 0.25	64 (≈ 147 µM)	32 (≈ 73.5 µM)	< 0.25	< 0.25	< 0.25	< 0.25			
Imipenem/Cilastatin [IPM]	< 0.12	< 0.12	< 0.12	< 0.12	0.25	< 0.12	< 0.12	< 0.12	0.5	< 0.12	< 0.12	0.25	< 0.12	< 0.12			
NCC[C@H](O)C(=O)N[C@@H]1C[C@H](N)[C@@H](O[C@H]2O[C@H](CN)[C@@H](O)[C@H](O)[C@H]2O)[C@H](O)[C@H]1O[C@H]1O[C@H](CO)[C@@H](O)[C@H](N)[C@H]1O [AMK, Amikacin]	4 (≈ 6.83 µM)	4 (≈ 6.83 µM)	4 (≈ 6.83 µM)	4 (≈ 6.83 µM)	4 (≈ 6.83 µM)	4 (≈ 6.83 µM)	4 (≈ 6.83 µM)	2 (≈ 3.42 µM)	4 (≈ 6.83 µM)	4 (≈ 6.83 µM)	8 (≈ 13.7 µM)	4 (≈ 6.83 µM)	4 (≈ 6.83 µM)	4 (≈ 6.83 µM)		8 (≈ 13.7 µM)	8 (≈ 13.7 µM)
